Measurements as given in ChEMBL document CHEMBL1151425, “RNAIII-inhibiting peptide affects biofilm formation in a rat model of staphylococcal ureteral stent infection” (Antimicrob Agents Chemother, 2007).

Experiments:
Staphylococcus aureus [1] = assay: Antimicrobial activity against Staphylococcus aureus Smith diffuse infected in Wistar rat ureteral stent infection model assessed as bacterial count on ureteral stent at 10 mg/kg, ip after 48 hrs; format: functional; conditions: route intraperitoneal
Staphylococcus aureus [2] = assay: Antimicrobial activity against Staphylococcus aureus Smith diffuse infected in Wistar rat ureteral stent infection model assessed as bacterial count in urine at 10 mg/kg, ip after 48 hrs; format: functional; conditions: route intraperitoneal
Rattus norvegicus [3] = assay: Toxicity in Staphylococcus aureus Smith diffuse infected Wistar rat assessed as mortality at 10 mg/kg, ip; format: organism-based; parameters: dose 10 mg/kg, route intraperitoneal; conditions: in vivo
Rattus norvegicus [4] = organism: Rattus norvegicus; assay: Toxicity in Staphylococcus aureus Smith diffuse infected Wistar rat containing 1 ug/ml drug-coated ureteral stent assessed as mortality; format: organism-based; conditions: in vivo, other
Rattus norvegicus [5] = assay: Toxicity in Staphylococcus aureus Smith diffuse infected Wistar rat assessed as drug-related adverse effects at 10 mg/kg, ip; format: organism-based; parameters: dose 10 mg/kg, route intraperitoneal; conditions: in vivo
Rattus norvegicus [6] = organism: Rattus norvegicus; assay: Toxicity in Staphylococcus aureus Smith diffuse infected Wistar rat containing 1 ug/ml drug-coated ureteral stent assessed as drug-related adverse effects; format: organism-based; conditions: in vivo, other
Rattus norvegicus [7] = assay: Toxicity in Staphylococcus aureus Smith diffuse infected Wistar rat containing 1 ug/ml drug-coated ureteral stent assessed as mortality in presence of 10 mg/kg, ip teicoplanin; format: organism-based; parameters: dose 10 mg/kg, route intraperitoneal; conditions: in vivo
Rattus norvegicus [8] = assay: Toxicity in Staphylococcus aureus Smith diffuse infected Wistar rat containing 1 ug/ml drug-coated ureteral stent assessed as drug-related adverse effects in presence of 10 mg/kg, ip teicoplanin; format: organism-based; parameters: dose 10 mg/kg, route intraperitoneal; conditions: in vivo
Staphylococcus aureus [9] = assay: Antimicrobial activity against Staphylococcus aureus Smith diffuse infected in Wistar rat ureteral stent infection model containing 1 ug/ml drug-coated stent assessed as bacterial count on ureteral stent after 48 hrs; format: functional
Staphylococcus aureus [10] = assay: Antimicrobial activity against Staphylococcus aureus Smith diffuse infected in Wistar rat ureteral stent infection model containing 1 ug/ml drug-coated stent assessed as bacterial count in urine after 48 hrs; format: functional
Staphylococcus aureus [11] = assay: Potentiation of teicoplanin-induced antimicrobial activity against Staphylococcus aureus Smith diffuse infected in Wistar rat ureteral stent infection model containing drug-coated stent assessed as bacterial count on stent after 48 hrs; format: functional
Staphylococcus aureus [12] = assay: Potentiation of teicoplanin-induced antimicrobial activity against Staphylococcus aureus Smith diffuse infected in Wistar rat ureteral stent infection model containing drug-coated stent assessed as bacterial count in urine after 48 hrs; format: functional
Staphylococcus aureus [13] = assay: Antimicrobial activity against Staphylococcus aureus Smith diffuse infected in Wistar rat ureteral stent infection model; format: functional

Molecule: CC(=O)N[C@@H]1[C@H](Oc2c3cc4cc2Oc2ccc(cc2Cl)[C@@H](O[C@@H]2O[C@@H](CO)[C@@H](O)[C@H](O)[C@@H]2NC(C)=O)[C@@H]2NC(=O)[C@H](NC(=O)[C@@H]4NC(=O)[C@H]4NC(=O)[C@@H](Cc5ccc(c(Cl)c5)O3)NC(=O)[C@H](N)c3ccc(O)c(c3)Oc3cc(O)cc4c3)c3ccc(O)c(c3)-c3c(O[C@H]4O[C@H](CO)[C@@H](O)[C@@H](O)[C@@H]4O)cc(O)cc3[C@@H](C(=O)O)NC2=O)O[C@@H](CO)[C@@H](O)[C@@H]1O
- CFU (Staphylococcus aureus [1]): 3.8 ×10³ /ml
- CFU (Staphylococcus aureus [2]): 2.9 ×10⁴ /ml
- Activity (Rattus norvegicus [3]): Non-toxic
- Activity (Rattus norvegicus [4]): Non-toxic
- Activity (Rattus norvegicus [5]): Non-toxic
- Activity (Rattus norvegicus [6]): Non-toxic
- Activity (Rattus norvegicus [7]): Non-toxic
- Activity (Rattus norvegicus [8]): Non-toxic

Molecule: H-YSPWTNF-NH2
- CFU (Staphylococcus aureus [9]): 67 ×10³ /ml
- CFU (Staphylococcus aureus [10]): 4 ×10⁴ /ml
- CFU (Staphylococcus aureus [11]): <10 mL⁻¹
- CFU (Staphylococcus aureus [12]): <10 mL⁻¹
- MIC (Staphylococcus aureus [13]): 1 µg/mL
- Activity (Rattus norvegicus [4]): Non-toxic
- Activity (Rattus norvegicus [5]): Non-toxic
- Activity (Rattus norvegicus [6]): Non-toxic
- Activity (Rattus norvegicus [7]): Non-toxic
- Activity (Rattus norvegicus [8]): Non-toxic
